# How the values were obtained:
# collagenase = biological target: T1, collagenase; experiment: modified ninhydrin assay, absorbance at […] nm; assay type: biochemical; conditions: collagen substrate; 5 h at 37°C; calcium chloride; positive control
# T1 construct: gene colG
# elastase = biological target: T2, elastase; experiment: absorbance at […] nm, nitroanilide release; assay type: biochemical; conditions: N-(methoxysuccinyl)-Ala-Ala-Pro-Val-4-nitroanilide substrate; 0.2 M Tris-HCl; 30 min; positive control
# T2 construct: gene CELA1
compound,measurement,setting,value
O=C(O[C@@H]1Cc2c(O)cc(O)cc2O[C@@H]1c1cc(O)c(O)c(O)c1)c1cc(O)c(O)c(O)c1 [Epigallocatechin gallate],IC50,collagenase,40 µg/mL
same,IC50,elastase,2620 µg/mL
